Key:
[1] = Relative thermodynamic stability of crystalline forms (DSC, XRPD after heating, slurry); type: physicochemical; conditions: form 1 converts to form 3 on heating to 150° C. and upon slurry
Method: In a vial Compound (I) form 1 (500 mg) were slurried in a 1:1 mixture of MeCN/water at room temperature for 24 hours. A small sample of wet precipitate was analyzed by XRPD showing the diffractogram of FIG. 3.
DSC was measured using a TA-Instruments Discovery-DSC calibrated at 5°/min to give the melting point as onset value. About 2 mg of sample is heated 5°/min under nitrogen flow in a closed pan with a pinhole in the lid.
Thus, Compound (I) Form 3 was formed upon heating of Compound (I) Form 1.

[2] = Dynamic vapor sorption (DVS); type: physicochemical; conditions: up to 90% RH
Method: Example 6: Procedures Used for Dynamic Vapor Sorption (DVS) Measurements
DVS was measured using SMS DVS advantage 01 changing the relative humidity from 0% RH to 95% RH in steps of 10% RH (5% between 90 and 95% RH). 2 cycles were performed using 1-10 mg, starting at 30% RH.

[3] = target: T1, MAGL (Homo sapiens, UniProt Q99685); test: In vitro competitive activity-based protein profiling (ABPP) in PC3 human cell membrane proteomes; type: biochemical; conditions: 30 min preincubation at 37° C., read-out: MAGL % inh. 1 μM (human PC3)
T1 construct: measuring fluorescent intensity of gel bands corresponding to MAGL; endogenous in cells; host or cells: PC3 human cells (membrane proteome)
T1 sequence (Q99685 1-303): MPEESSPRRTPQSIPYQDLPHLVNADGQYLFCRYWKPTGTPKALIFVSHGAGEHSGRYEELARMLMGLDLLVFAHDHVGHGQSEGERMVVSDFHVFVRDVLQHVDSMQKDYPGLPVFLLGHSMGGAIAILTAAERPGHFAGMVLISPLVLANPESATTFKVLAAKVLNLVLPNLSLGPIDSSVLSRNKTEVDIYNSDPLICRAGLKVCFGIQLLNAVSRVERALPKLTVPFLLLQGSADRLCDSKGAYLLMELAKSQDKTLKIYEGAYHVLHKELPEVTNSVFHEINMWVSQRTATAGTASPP
Method: In Vitro Competitive Activity-Based Protein Profiling
PC3 human cell membrane proteomes (50 μL, 2.0 mg/mL total protein concentration) were preincubated with varying concentrations of Compound (I) at 37° C. After 30 min, the ABPP probe JW912-Bodipy (1.0 μL, 50 μM in DMSO) was added and the mixture was incubated for 30 min at room temperature. Reactions were quenched with SDS loading buffer (15 μL—4×) and run on SDS-PAGE. Following gel imaging, serine hydrolase activity was determined by measuring fluorescent intensity of gel bands corresponding to MAGL using ImageJ 1.43u software. Intensities were converted to percent enzyme activity by normalizing to DMSO controls. IC50 values were determined by fitting percent enzyme activities to a non-linear regression, 4-parameter, sigmoidal dose response function in Prism GraphPad.

[4] = target: T2, MAGL (Mus musculus, UniProt O35678); test: In vivo MAGL inhibition, brain proteomes after oral gavage; conditions: 5 mg/kg oral gavage; C57Bl/6J; brain proteomes 4 h after administration
T2 construct: brain proteomes were prepared and analyzed according to previously established methods; from tissue; host or cells: brain of wild-type C57Bl/6J animals
T2 sequence (O35678 1-303): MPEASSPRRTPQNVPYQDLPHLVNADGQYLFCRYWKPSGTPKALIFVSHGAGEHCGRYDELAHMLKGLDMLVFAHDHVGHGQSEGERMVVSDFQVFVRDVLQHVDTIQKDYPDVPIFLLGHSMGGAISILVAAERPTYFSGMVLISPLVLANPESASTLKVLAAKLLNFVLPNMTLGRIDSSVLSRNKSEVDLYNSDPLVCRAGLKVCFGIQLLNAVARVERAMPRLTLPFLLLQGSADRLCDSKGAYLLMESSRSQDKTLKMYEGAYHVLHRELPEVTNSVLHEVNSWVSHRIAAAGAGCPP
Method: Compound (I) were administered to wild-type C57Bl/6J by oral gavage in a vehicle of polyethylene glycol. Each animal was sacrificed 4 h following administration and brain proteomes were prepared and analyzed according to previously established methods (See Niphakis, M. J., et al. (2011) ACS Chem. Neurosci. and Long, J. Z., et al. Nat. Chem. Biol. 5:37-44).

| SMILES | thermodynamic stability relative to the other crystalline form [1] | water uptake (DVS) [2] | inhibition at 1 µM [3] | MAGL % inh. 5 mg/kg (mouse) [4] |
| --- | --- | --- | --- | --- |
| O=C(Nc1cccnn1)[C@H]1CC12CCN(C(=O)OC(C(F)(F)F)C(F)(F)F)CC2 [Compound (I) form 3, 1,1,1,3,3,3-Hexafluoropropan-2-yl (S)-1-(pyridazin-3-ylcarbamoyl)-6-azaspiro[2.5]octane-6-carboxylate form 3] | thermodynamically more stable than Compound (I) Form 1 | around 0.1 wt % | – | – |
| O=C(Nc1cccnn1)[C@H]1CC12CCN(C(=O)OC(C(F)(F)F)C(F)(F)F)CC2 [Compound (I), 1,1,1,3,3,3-Hexafluoropropan-2-yl (S)-1-(pyridazin-3-ylcarbamoyl)-6-azaspiro[2.5]octane-6-carboxylate] | – | – | 100% | 100% |
| O=C(Nc1cccnn1)[C@H]1CC12CCN(C(=O)OC(C(F)(F)F)C(F)(F)F)CC2 [Compound (I) form 1, 1,1,1,3,3,3-Hexafluoropropan-2-yl (S)-1-(pyridazin-3-ylcarbamoyl)-6-azaspiro[2.5]octane-6-carboxylate form 1] | – | 1.4 wt % | – | – |

From patent US12378219B2, “Crystalline forms of a MAGL inhibitor” (H. LUNDBECK A/S, priority 2022, dated 2025)
